# Assay results from patent US20260041640A1 (INCYCLIX BIO, LLC, priority 2023, published 2026).
# Where two headings read alike, the source gives them in different places.
# Tests used:
# [1] = Plasma protein binding, rat; assay type: in vitro ADME
# From the text: Additionally, the whole blood-to-plasma ratio (KWB/P) in humans is 6.20, which also exceeds the other species tested (Table 7).
# [2] = tested on: LU5202 [small cell lung cancer (SCLC)] patient-derived xenograft (PDX) model; assay type: in vivo
# Protocol: 8-week-old NOD/SCID female mice (n=59) were split into two cohorts. A total of 29 mice were enrolled in cohort 1 of the study. A total of 30 mice were enrolled in […] of the study. When the average tumor volume reached 150-250 mm^3, all animals were randomly allocated to the 6 different study groups using Study Log software (Table 24). Animals were monitored weekly for palpable tumors, or any changes in appearance or behavior. Once tumors were palpable, tumors were measured at least once weekly using calipers. Body weight was measured at least 2 times per week following randomization and initiation of treatment.
# [3] = tested on: recurrent advanced/metastatic cancer; assay: First-in-human clinical study: preliminary antitumor activity; assay type: in vivo
# Protocol: Cohort 1 enrollment of 6 subjects dosed at 100 mg oral QD was completed in October of 2023.
# [4] = Aqueous solubility of INX-315; assay type: physicochemical
# [5] = Cohort 1, 100 mg QD, 6 subjects
smiles,measurement,setting,value
NS(=O)(=O)c1ccc(Nc2ncc3cc4n(c3n2)C2(CCCCC2)C(=O)NN4)cc1 [INX-315],fraction unbound,[1],0.018
same,tumor growth inhibition,"[2]; cohort 1, INX-315 100 mg/kg added to chemotherapy (cisplatin + etoposide)",70%
same,body weight / tolerability,"[2]; cohort 1, chemotherapy and INX-315",lost weight and did not tolerate the treatment well
same,tumor growth inhibition,"[2]; cohort 1, monotherapy 100 mg/kg BID PO",62%
same,tumor growth inhibition,"[2]; cohort 1, monotherapy 150 mg/kg BID PO",66%
same,tumor growth inhibition,"[2]; cohort 2, INX-315 100 mg/kg added to chemotherapy",94%
same,tumor growth inhibition,"[2]; cohort 2, monotherapy 100 mg/kg BID PO",70%
same,tumor growth inhibition,"[2]; cohort 2, monotherapy 150 mg/kg BID PO",87%
same,partial response (PR) subjects,[3]; [5],1 subjects
same,progressive disease (PD) subjects,[3]; [5],2 subjects
same,stable disease (SD) subjects,[3]; [5],3 subjects
same,response,"[3]; Subject 101-001 (ER+/HER2− breast cancer), 100 mg QD",confirmed PR
same,decrease in TL,"[3]; Subject 201-001, end of Cycle 2, 100 mg QD",10%
same,solubility,"[4]; 0.01 N HCl, simulated gastric fluid, 0.01N HCl, read-out: Dissolved Drug Solubility",269 ± 92 µg/mL
same,solubility,"[4]; 50 mM Na acetate, aqueous buffer, 50 mM Na Acetate, read-out: Total Drug Solubility",19 ± 7 µg/mL
same,solubility,"[4]; 0.224% SIF in PBS, fassif, 0.224% SIF in PBS, read-out: Dissolved Drug Solubility",5.3 ± 0.4 µg/mL
same,solubility,"[4]; 0.224% SIF in PBS, fassif, 0.224% SIF in PBS, read-out: Total Drug Solubility",6.1 ± 0.4 µg/mL
same,solubility,"[4]; 0.5% SIF in PBS, fassgf or other biorelevant, 0.5% SIF in PBS, read-out: Dissolved Drug Solubility",11 ± 1 µg/mL
same,solubility,"[4]; 0.5% SIF in PBS, fassgf or other biorelevant, 0.5% SIF in PBS, read-out: Total Drug Solubility",15 ± 0.2 µg/mL
same,solubility,"[4]; 0.5% Tween-80 in PBS, aqueous with cosolvent or surfactant or cyclodextrin, 0.5% Tween-80 in PBS, read-out: Dissolved Drug Solubility",59 ± 8 µg/mL
same,solubility,"[4]; 0.5% Tween-80 in PBS, aqueous with cosolvent or surfactant or cyclodextrin, 0.5% Tween-80 in PBS, read-out: Total Drug Solubility",55 ± 1 µg/mL
same,solubility,"[4]; 1% SIF in PBS, fassgf or other biorelevant, 1% SIF in PBS, read-out: Dissolved Drug Solubility",16.3 ± 0.1 µg/mL
same,solubility,"[4]; 1% SIF in PBS, fassgf or other biorelevant, 1% SIF in PBS, read-out: Total Drug Solubility",16.4 ± 0.1 µg/mL
same,solubility,"[4]; 1% SLS in water, aqueous with cosolvent or surfactant or cyclodextrin, 1% SLS in H2O, read-out: Dissolved Drug Solubility",40 ± 1 µg/mL
same,solubility,"[4]; 5% TPGS in PBS, aqueous with cosolvent or surfactant or cyclodextrin, 5% TPGS in PBS, read-out: Dissolved Drug Solubility",313 ± 21 µg/mL
same,solubility,"[4]; 5% TPGS in PBS, aqueous with cosolvent or surfactant or cyclodextrin, 5% TPGS in PBS, read-out: Total Drug Solubility",305 ± 10 µg/mL
same,solubility,"[4]; PBS/Blank FaSSIF, aqueous buffer, PBS/Blank FaSSIF, read-out: Total Drug Solubility",17 ± 2 µg/mL
same,BCS classification,"[4]; high permeability, low solubility",BCS-2
same,solubility,"[4]; water, H2O, read-out: Total Drug Solubility",61 ± 14 µg/mL
